Data: patent US9820972B2, “Antiviral compounds highly effective as HCV-NS5A inhibitor” (priority 2013, dated 2017)
Where two headings read alike, the source gives them in different places.

Tested on: GT-1a of NS5A Replicon
Experiment: HCV double reporter gene (Renilla luciferase) replicon assay, GT-1a
Type: cell-based, Hepatitis C virus (HCV)
Settings: read-out: EC50 For GT-1a of NS5A Replicon
Description: Antiviral Assay for Inhibition Activity (EC50):
The study is completed by a new constructed double reporter genes replicon assay system, the capacity of viral replicon in infected cell is determined by detecting the reporter gene Renilla luciferase. The relationship of reporter genes, HCV RNA replicon and viral proteins is well linear. 8 gradient concentrations for 2-fold dilution, 3 wells, 3 times repetition and 1 or 2 control drugs are set to finally determine EC50 of compound.
THF was distilled from sodium metal and benzophenone. DCM, pentane and hexane were distilled form calcium hydride. Special raw material and intermediate in the invention were ordered by contract synthesis from Zannan SciTech Co., Let in China, others reagents were purchased from Shanghai reagent company, Aldrich, Acros etc. As intermediates or products during the synthesis is not required for the reaction and other tests the next step, the synthesis is repeated until a sufficient number of times. The invention of the prepared compounds of […] (HCV NS5A) inhibitory activity test was performed by CRO service units such as WuXi AppTec etc.

[1] = Hepatitis C virus, GT1A, GT-1a replicon, class symbols

`COC(=O)N[C@H](C(=O)N1CC(OC(=O)N2Cc3cc4c(cc3C2)OCO4)CC1c1nc(-c2ccc3c(ccc4cc(-c5c[nH]c([C@@H]6CCCN6C(=O)[C@@H](NC(=O)OC)C(C)C)n5)ccc43)c2)c[nH]1)C(C)C` (stereo partly shown) [Compound 6bt] gave an EC50 [1] of 0.001 to 0.999 nM.
For `COC(=O)N[C@H](C(=O)N1CC(OC(=O)N2Cc3cc4c(cc3C2)OCO4)CC1c1nc(-c2ccc(-c3cccc4c(-c5c[nH]c([C@@H]6CCCN6C(=O)[C@@H](NC(=O)OC)C(C)C)n5)cccc34)cc2)c[nH]1)C(C)C` (stereo partly shown) [Compound 6bu], the EC50 [1] was 0.001 to 0.999 nM.
`COC(=O)N[C@H](C(=O)N1CN(C(=O)N2Cc3cc4c(cc3C2)OCO4)C[C@H]1c1ncc(-c2ccc(-c3cccc4c(-c5cnc([C@@H]6CCCN6C(=O)[C@@H](NC(=O)OC)C(C)C)[nH]5)cccc34)cc2)[nH]1)C(C)C` [Compound 6bv] was tested, and the EC50 [1] was > 50 nM.
`CC(C)(C)OC(=O)N[C@H](C(=O)N1CCC[C@H]1c1nc(-c2ccc(-c3ccc(-c4cnc([C@@H]5C[C@@H](OC(=O)N6Cc7ccc8c(c7C6)OCO8)CN5C(=O)[C@@H](NC(=O)OC(C)(C)C)C(C)(C)C)[nH]4)cc3)cc2)c[nH]1)C(C)(C)C` [Compound 6c] was tested, and the EC50 [1] was > 50 nM.
Compound `COC(=O)N[C@@H](C(=O)N1CC=CC1c1nc(-c2ccc(-c3ccc(-c4c[nH]c(C5C=CCN5C(=O)[C@H](NC(=O)OC)c5ccccc5)n4)cc3)cc2)c[nH]1)c1ccccc1` (stereo partly shown) [Compound 6ca] has an EC50 [1] of 0.001 to 0.999 nM.
For `COC(=O)N[C@H](C(=O)N1CCCC1c1ncc(-c2ccc3c(c2)cc2n3C(c3ccccc3)Oc3cc(-c4cnc([C@@H]5C=CCN5C(=O)[C@@H](NC(=O)OC)C(C)C)[nH]4)ccc3-2)[nH]1)C(C)C` (stereo partly shown) [Compound 6cd], the EC50 [1] was > 50 nM.
With `CN(C)C(=O)N[C@@H](C(=O)N1CC=CC1c1nc(-c2ccc(-c3ccc(-c4c[nH]c(C5CCCN5C(=O)[C@H](NC(=O)N(C)C)c5ccccc5)n4)cc3)cc2)c[nH]1)c1ccccc1` (stereo partly shown) [Compound 6ce] the EC50 [1] was 0.001 to 0.999 nM.
With `CNC(=O)N[C@@H](C(=O)N1CC=CC1c1nc(-c2ccc(-c3ccc(-c4c[nH]c(C5CCCN5C(=O)[C@H](NC(=O)NC)c5ccccc5)n4)cc3)cc2)c[nH]1)c1ccccc1` (stereo partly shown) [Compound 6cf] the EC50 [1] was 0.001 to 0.999 nM.
With `CC(C)C(NC(=O)N(C)C)C(=O)N1CC=C[C@H]1c1nc(-c2ccc(-c3ccc(-c4c[nH]c(C5CCCN5C(=O)[C@@H](NC(=O)N(C)C)C(C)C)n4)cc3)cc2)c[nH]1` (stereo partly shown) [Compound 6cg] the EC50 [1] was 0.001 to 0.999 nM.
Compound `CNC(=O)NC(C(=O)N1CC=C[C@H]1c1nc(-c2ccc(-c3ccc(-c4c[nH]c(C5CCCN5C(=O)[C@@H](NC(=O)NC)C(C)C)n4)cc3)cc2)c[nH]1)C(C)C` (stereo partly shown) [Compound 6ch] has an EC50 (GT-1a replicon, class symbols) of 0.001 to 0.999 nM.
`COC(=O)N[C@H](C(=O)N1CCCC1c1nc(-c2ccc(-c3ccc(-c4c[nH]c([C@@H]5C=CCN5C(=O)C(NC(=O)N(C)C)C(C)C)n4)cc3)cc2)c[nH]1)C(C)C` (stereo partly shown) [Compound 6ci] gave an EC50 [1] of 0.001 to 0.999 nM.
With `CNC(=O)NC(C(=O)N1CC=C[C@H]1c1nc(-c2ccc(-c3ccc(-c4c[nH]c(C5CCCN5C(=O)[C@@H](NC(=O)OC)C(C)C)n4)cc3)cc2)c[nH]1)C(C)C` (stereo partly shown) [Compound 6cj] the EC50 [1] was 0.001 to 0.999 nM.
Compound `COC(=O)N[C@H](C(=O)N1CCC[C@H]1c1ncc(-c2ccc(-c3ccc(-c4cnc([C@@H]5CN(C(=O)N6Cc7ccc(OC)c(OC)c7C6)CN5C(=O)[C@@H](NC(=O)OC)C(C)C)[nH]4)cc3)cc2)[nH]1)C(C)C` [Compound 6cq] has an EC50 [1] of 1 to 49.9 nM.
`COC(=O)N[C@H](C(=O)N1CC=C[C@H]1c1ncc(-c2ccc(-c3ccc(-c4cnc([C@@H]5CNCN5C(=O)[C@@H](NC(=O)OC)C(C)C)[nH]4)cc3)cc2)[nH]1)C(C)C` [Compound 6cv] showed an EC50 [1] of 0.001 to 0.999 nM.
In the case of `COC(=O)N[C@H](C(=O)N1CC=C[C@H]1c1ncc(-c2ccc(-c3ccc(-c4cnc([C@@H]5CN(C(=O)OC(C)(C)C)CN5C(=O)[C@@H](NC(=O)OC)C5CCCCC5)[nH]4)cc3)cc2)[nH]1)C(C)C` [Compound 6cy], the EC50 [1] is reported as 0.001 to 0.999 nM.
`COC(=O)N[C@H](C(=O)N1CCC[C@H]1c1nc(-c2ccc(-c3ccc(-c4cnc([C@@H]5C[C@@H](OC(=O)N6Cc7ccc8c(c7C6)OCO8)CN5C(=O)[C@@H](NC(=O)OC(C)(C)C)C(C)C)[nH]4)cc3)cc2)c[nH]1)C(C)C` [Compound 6d] was tested, and the EC50 [1] was 1 to 49.9 nM.
`COC(=O)N[C@H](C(=O)N1CC=C[C@H]1c1ncc(-c2ccc(-c3ccc(-c4cnc([C@@H]5CN(S(=O)(=O)C6CC6)CN5C(=O)[C@@H](NC(=O)OC)C(C)C)[nH]4)cc3)cc2)[nH]1)C(C)C` [Compound 6da] gave an EC50 [1] of 0.001 to 0.999 nM.
`COC(=O)N[C@H](C(=O)N1CC=C[C@H]1c1ncc(-c2ccc(-c3ccc(-c4cnc([C@@H]5CN(C(=O)OC)CN5C(=O)[C@@H](NC(=O)OC)C(C)C)[nH]4)cc3)cc2)[nH]1)C(C)C` [Compound 6db] was tested, and the EC50 [1] was 0.001 to 0.999 nM.
`COC(=O)N[C@H](C(=O)N1CCC[C@H]1c1ncc(-c2ccc(-c3ccc(-c4cnc([C@@H]5CCCN5C(=O)[C@@H](NC(=O)N(C)C)C(C)C)[nH]4)cc3)cc2)[nH]1)C(C)C` [Compound 6de] gave an EC50 [1] of 0.001 to 0.999 nM.
In the case of `COC(=O)NC(C(=O)N1CC=C[C@H]1c1ncc(-c2ccc(-c3ccc(-c4cnc([C@@H]5CCCN5C(=O)[C@@H](NC(=O)OC)C(C)C)[nH]4)cc3)cc2)[nH]1)C1CCCC1` (stereo partly shown) [Compound 6dh], the EC50 [1] is reported as 0.001 to 0.999 nM.
With `COC(=O)NC(C(=O)N1CC=C[C@H]1c1ncc(-c2ccc(-c3ccc(-c4cnc([C@@H]5CCCN5C(=O)[C@@H](NC(=O)OC)C(C)C)[nH]4)cc3)cc2)[nH]1)C1CCCCC1` (stereo partly shown) [Compound 6di] the EC50 (GT-1a replicon, class symbols) was 0.001 to 0.999 nM.
`COC(=O)NC(C(=O)N1CC=C[C@H]1c1ncc(-c2ccc(-c3ccc(-c4cnc([C@@H]5CCCN5C(=O)[C@@H](NC(=O)OC)C(C)C)[nH]4)cc3)cc2)[nH]1)C1CCCCC1` (stereo partly shown) [Compound 6dj] showed an EC50 (GT-1a replicon, class symbols) of 1 to 49.9 nM.
`COC(=O)N[C@H](C(=O)N1CC=C[C@H]1c1ncc(-c2ccc(-c3ccc(-c4cnc([C@@H]5CCCN5C(=O)[C@@H](NC(=O)OC)C5CCCCC5)[nH]4)cc3)cc2)[nH]1)C1CCCCC1` [Compound 6dk] was tested, and the EC50 [1] was 0.001 to 0.999 nM.
Work on `COC(=O)N[C@H](C(=O)N1CC=C[C@H]1c1ncc(-c2ccc(-c3ccc(-c4cnc([C@@H]5C=CCN5C(=O)[C@@H](NC(=O)OC)C5CCCCC5)[nH]4)cc3)cc2)[nH]1)C1CCCCC1` [Compound 6dm] yielded an EC50 [1] of 0.001 to 0.999 nM.
With `COC(=O)N[C@H](C(=O)N1CC=C[C@H]1c1ncc(-c2ccc(-c3ccc(-c4cnc([C@@H]5CCCN5C(=O)[C@@H](NC(=O)OC)C5CCCCC5)[nH]4)cc3)cc2)[nH]1)C1CCCC1` [Compound 6dn] the EC50 [1] was 0.001 to 0.999 nM.
For `COC(=O)N[C@H](C(=O)N1CC=C[C@H]1c1ncc(-c2ccc(-c3ccc(-c4cnc([C@@H]5CCCN5C(=O)[C@@H](NC(=O)OC)C5CCCC5)[nH]4)cc3)cc2)[nH]1)C1CCCC1` [Compound 6dp], the EC50 [1] was 0.001 to 0.999 nM.
In the case of `COC(=O)N[C@H](C(=O)N1CCC(O)[C@H]1c1ncc(-c2ccc(-c3ccc(-c4cnc([C@@H]5C=CCN5C(=O)[C@@H](NC(=O)OC)C(C)C)[nH]4)cc3)cc2)[nH]1)C(C)C` (stereo partly shown) [Compound 6dr], the EC50 [1] is reported as 0.001 to 0.999 nM.
Compound `COC(=O)N[C@H](C(=O)N1CC=C[C@H]1c1nc(-c2ccc(-c3ccc(-c4cnc([C@@H]5CC6(CN5C(=O)[C@@H](NC(=O)OC)C(C)C)OCCO6)[nH]4)cc3)cc2)c[nH]1)C(C)C` [Compound 6dt] has an EC50 [1] of 0.001 to 0.999 nM.
In the case of `COC(=O)N[C@H](C(=O)N1CC=C[C@H]1c1nc(-c2ccc(-c3ccc(-c4cnc([C@@H]5CC6(CN5C(=O)[C@H](NC(=O)OC)c5ccccc5)OCCO6)[nH]4)cc3)cc2)c[nH]1)C(C)C` [Compound 6du], the EC50 [1] is reported as 0.001 to 0.999 nM.
Compound `COC(=O)N[C@@H](C(=O)N1CC=C[C@H]1c1nc(-c2ccc(-c3ccc(-c4cnc([C@@H]5CC6(CN5C(=O)[C@H](NC(=O)OC)c5ccccc5)OCCO6)[nH]4)cc3)cc2)c[nH]1)c1ccccc1` [Compound 6dv] has an EC50 [1] of 0.001 to 0.999 nM.
`COC(=O)N[C@H](C(=O)N1CC2(C[C@H]1c1ncc(-c3ccc(-c4ccc(-c5c[nH]c([C@@H]6C=CCN6C(=O)[C@H](NC(=O)OC)c6ccccc6)n5)cc4)cc3)[nH]1)OCCO2)C(C)C` [Compound 6dw] was tested, and the EC50 [1] was 0.001 to 0.999 nM.
Work on `COC(=O)N[C@@H](C(=O)N1CC=C[C@H]1c1ncc(-c2ccc(-c3ccc(-c4c[nH]c([C@@H]5CCCN5C(=O)[C@H](NC(=O)OC)c5ccccc5)n4)cc3)cc2)[nH]1)c1ccccc1` [Compound 6dz] yielded an EC50 [1] of 0.001 to 0.999 nM.
With `COC(=O)N[C@H](C(=O)N1C[C@H](OC(=O)N2Cc3ccc4c(c3C2)OCO4)C[C@H]1c1nc(-c2ccc(-c3ccc(-c4cnc([C@@H]5C[C@@H](OC(=O)N6Cc7ccc8c(c7C6)OCO8)CN5C(=O)[C@@H](NC(=O)OC)C(C)C)[nH]4)cc3)cc2)c[nH]1)C(C)C` [Compound 6e] the EC50 (Hepatitis C virus, GT1A) was > 50 nM.
For `CC(C)[C@H](NC(=O)OC(C)(C)C)C(=O)N1C[C@H](OC(=O)N2Cc3ccc4c(c3C2)OCO4)CC1c1ncc(-c2ccc(-c3ccc(-c4c[nH]c([C@@H]5C[C@@H](OC(=O)N6Cc7ccc8c(c7C6)OCO8)CN5C(=O)[C@@H](NC(=O)OC(C)(C)C)C(C)C)n4)cc3)cc2)[nH]1` (stereo partly shown) [Compound 6f], the EC50 (Hepatitis C virus, GT1A) was > 50 nM.
`COC(=O)N[C@H](C(=O)N1CN(C(=O)N2Cc3cc4c(cc3C2)OCO4)CC1c1nc(-c2cc3sc(-c4ccc(-c5c[nH]c([C@@H]6CCCN6C(=O)[C@@H](NC(=O)OC)C(C)C)n5)cc4)cc3s2)c[nH]1)C(C)C` (stereo partly shown) [Compound 6fa] showed an EC50 [1] of 0.001 to 0.999 nM.
Work on `COC(=O)NC(C(=O)N1CCC[C@H]1c1nc(-c2cc3sc(-c4ccc(-c5c[nH]c(C6CN(C(=O)N7Cc8cc9c(cc8C7)OCO9)CN6C(=O)[C@@H](NC(=O)OC)C(C)C)n5)cc4)cc3s2)c[nH]1)c1ccccc1` (stereo partly shown) [Compound 6fb] yielded an EC50 [1] of 0.001 to 0.999 nM.
In the case of `COC(=O)N[C@@H](C(=O)N1CC=CC1c1nc(-c2ccc(-c3cc4sc(-c5c[nH]c(C6C=CCN6C(=O)[C@H](NC(=O)OC)c6ccccc6)n5)cc4s3)cc2)c[nH]1)c1ccccc1` (stereo partly shown) [Compound 6fe], the EC50 [1] is reported as 0.001 to 0.999 nM.
